From patent US20140323593A1, “METHODS AND APPARATUS FOR THE CONTROL OF ADENOSINE TRIPHOSPHATE SYNTHASE ACTIVITY WITHIN LIVING ORGANISMS, AND CONDITIONING OF WATER-BASED FLUIDS AND SUBSTANCES USING MAGNETIC FIELD EXPOSURES OR THEIR WITHDRAWAL” (priority 2013, published 2014)

Legend:
[1] = tested on: 60 cancer cell lines maintained by the US National Cancer Institute (NCI-60); conditions: mean over NCI-60 cell lines; read-out: IC50 (the concentration inhibiting proliferation rate by 50%), mean; cited from earlier work
[2] = tested on: leukemic cell K562; experiment: average reductions in chromosome numbers (karyotype contraction) in K562; format: cell-based, human
Source text: First, we observed that 5 different cancer cell lines representative of the most common human cancers display a reduction in their chromosome numbers when exposed to 60-Hz MFs (Appendix 1). Reductions in chromosome numbers result from metabolic restriction (Li et al., 2012), which can be caused by impaired ATPS function.
Fourth, Russian physicists (Semikhina and Kiselev, 1981) observed resonances for water at specific frequency-amplitude combinations that are broadened by the presence of even small levels of impurities. They detected one maximum at 156.2-Hz and 15.45 μT for 7° C. pure water (Semikhina et al, 1988). In our experiments compiling average chromosome losses over frequency in anoxic K562 (5% carbon dioxide and 37° C.) 6-day tests at 1 μT, a wide resonance was measured as follows: −3.6±0.79 at 50-Hz, −9.36±1.06 at 60-Hz, −12.71±1.82 at 120-Hz and −9.8±1.31 at 155-Hz. […] The ATPS resonance at […] we documented is indeed wider than that reported by Semikhina for pure water. […]
Our laboratory has detected ATPSI at all tested frequencies and at all MF intensities above 25 nT using measurements of karyotype contraction (see Appendix 1) in numerous cell lines: K562 and HEL (erythro-leukemias). […] In our experiments, ATPSI detected by karyotype contractions varied only weakly with field intensities between 25 nT and 5 μT, but probably cover the range of 10 nT to 879 μT. […]

| SMILES | IC50 [1] | average reductions in chromosome numbers ([2]; K562, substance alone for 3 days, metformin 0.01 mg/l, resistin 40 ng/l) | average reductions in chromosome numbers (losses) with 1 μT added ([2]; K562, 1 μT magnetic field added to metformin 0.01 mg/l or resistin 40 ng/l, 1 μT alone 7.5) |
| --- | --- | --- | --- |
| CC[C@H]1/C=C/C=C/C[C@@H](C)[C@H](O)[C@@](C)(O)C(=O)[C@@H](C)[C@H](O)[C@@H](C)C(=O)[C@@H](C)[C@H](O)[C@@H](C)/C=C/C(=O)O[C@@H]2[C@H](C)[C@H](CC1)O[C@]1(CC[C@H](C)[C@H](C[C@@H](C)O)O1)[C@H]2C [oligomycin] | 300 nM | – | – |
| CN(C)C(=N)N=C(N)N [Metformin] | – | 9 | 11±0.34 |
